Data published in US9661854B2, “Molecules having pesticidal utility, and intermediates, compositions, and processes, related thereto” (Dow AgroSciences LLC, priority 2015, dated 2017).

Legend:
[1] = system: Beet Armyworm (Spodoptera exigua, LAPHEG); test: Bioassay on Beet Armyworm (BAW), 128-well diet tray assay; format: in vivo; details: 168 h, 50 μg/cm^2 on artificial diet, second instar larvae, 25° C., five to seven days, average of eight wells, read-out: BAW % Control (or Mortality) rating
Protocol: (§1) Example A: Bioassays on Beet Armyworm (Spodoptera exigua, LAPHEG) (“BAW”) and Cabbage Looper (Trichoplusia ni, TRIPNI) (“CL”)
(§2) Certain molecules disclosed in this document were tested against BAW and CL using procedures described in the following examples. In the reporting of the results, the “BAW & CL Rating Table” was used (See Table Section).
Bioassays on BAW were conducted using a 128-well diet tray assay. One to five second instar BAW larvae were placed in each well (3 mL) of the diet tray that had been previously filled with 1 mL of artificial diet to which 50 μg/cm^2 of the test molecule (dissolved in 50 μL of 90:10 acetone-water mixture) had been applied (to each of eight wells) and then allowed to dry. Trays were covered with a clear self-adhesive cover, vented to allow gas exchange, and held at 25° C., 14:10 light-dark for five to seven days. Percent mortality was recorded for the larvae in each well; activity in the eight wells was then averaged. The results are indicated in the table entitled “Table ABC: Biological Results” (See Table Section).

[2] = system: Cabbage Looper (Trichoplusia ni, TRIPNI); test: Bioassay on Cabbage Looper (CL), 128-well diet tray assay; format: in vivo; details: 168 h, 50 μg/cm^2 on artificial diet, second instar larvae, 25° C., five to seven days, average of eight wells, read-out: CL % Control (or Mortality) rating
Protocol: as §1, §2
Bioassays on CL were conducted using a 128-well diet tray assay. One to five second instar CL larvae were placed in each well (3 mL) of the diet tray that had been previously filled with 1 mL of artificial diet to which 50 μg/cm^2 of the test molecule (dissolved in 50 μL of 90:10 acetone-water mixture) had been applied (to each of eight wells) and then allowed to dry. Trays were covered with a clear self-adhesive cover, vented to allow gas exchange, and held at 25° C., 14:10 light-dark for five to seven days. Percent mortality was recorded for the larvae in each well; activity in the eight wells was then averaged. The results are indicated in the table entitled “Table ABC: Biological Results” (See Table Section).

| SMILES | mortality at 50 µg/cm2 [1] [%] | mortality at 50 µg/cm2 [2] [%] |
| --- | --- | --- |
| Cc1ccc(OCC(F)(F)F)c(N2C(=O)CS/C2=N\C(=O)Nc2ccc(CCc3ncn(-c4ccc(OC(F)(F)F)cc4)n3)cc2)c1 [F13, (Z)-1-(3-(5-Methyl-2-(2,2,2-trifluoroethoxy)phenyl)-4-oxothiazolidin-2-ylidene)-3-(4-(2-(1-(4-(trifluoromethoxy)phenyl)-1H-1,2,4-triazol-3-yl)ethyl)phenyl)urea] | 50 to 100 | 50 to 100 |
| Cc1ccc(C(C)C)c(N2C(=O)CS/C2=N\C(=O)Nc2ccc(/C=C/c3ncn(-c4ccc(OC(F)(F)F)cn4)n3)cc2)c1 [F69, 1-((Z)-3-(2-isopropyl-5-methylphenyl)-4-oxothiazolidin-2-ylidene)-3-(4-((E)-2-(1-(5-(trifluoromethoxy)pyridin-2-yl)-1H-1,2,4-triazol-3-yl)vinyl)phenyl)urea] | 50 to 100 | 50 to 100 |
| CCOc1ccc(C)cc1N1C(=O)CS/C1=N\C(=O)Nc1ccc(/C=C/c2ncn(-c3ccc(OC(F)(F)F)cc3)n2)cc1 [F46, 1-((Z)-3-(2-Ethoxy-5-methylphenyl)-4-oxothiazolidin-2-ylidene)-3-(4-((E)-2-(1-(4-(trifluoromethoxy)phenyl)-1H-1,2,4-triazol-3-yl)vinyl)phenyl)urea] | 50 to 100 | 50 to 100 |
| Cc1ccc(Cl)c(N2C(=O)CS/C2=N\C(=O)Nc2ccc(/C=C/c3ncn(-c4ccc(OC(F)(F)F)cc4)n3)cc2)c1 [F44, 1-((Z)-3-(2-Chloro-5-methylphenyl)-4-oxothiazolidin-2-ylidene)-3-(4-((E)-2-(1-(4-(trifluoromethoxy)phenyl)-1H-1,2,4-triazol-3-yl)vinyl)phenyl)urea] | 50 to 100 | 50 to 100 |
| Cc1ccc(C(C)C)c(N2C(=O)CS/C2=N\C(=O)Nc2ccc(CCc3ncn(-c4ccc(OC(F)(F)F)cc4)n3)cc2F)c1 [F17, (Z)-1-(2-Fluoro-4-(2-(1-(4-(trifluoromethoxy)phenyl)-1H-1,2,4-triazol-3-yl)ethyl)phenyl)-3-(3-(2-isopropyl-5-methylphenyl)-4-oxothiazolidin-2-ylidene)urea] | 50 to 100 | 50 to 100 |
| CC(C)c1ccc(C(F)(F)F)cc1N1C(=O)CS/C1=N\C(=O)Nc1ccc(/C=C/c2ncn(-c3ccc(OC(F)(F)F)cc3)n2)cc1F [F64, 1-(2-fluoro-4-((E)-2-(1-(4-(trifluoromethoxy)phenyl)-1H-1,2,4-triazol-3-yl)vinyl)phenyl)-3-((Z)-3-(2-isopropyl-5-(trifluoromethyl)phenyl)-4-oxothiazolidin-2-ylidene)urea] | 50 to 100 | 50 to 100 |
| Cc1ccc(C(C)C)c(N2C(=O)CS/C2=N\C(=O)Nc2ccc(CCc3ncn(-c4ccc(OC(F)(F)F)cc4)n3)cc2Cl)c1 [F18, (Z)-1-(2-Chloro-4-(2-(1-(4-(trifluoromethoxy)phenyl)-1H-1,2,4-triazol-3-yl)ethyl)phenyl)-3-(3-(2-isopropyl-5-methylphenyl)-4-oxothiazolidin-2-ylidene)urea] | 50 to 100 | 50 to 100 |
| Cc1ccc(C(C)C)c(N2C(=O)CS/C2=N\C(=O)Nc2ccc(/C=C/c3ncn(-c4ncc(C(F)(F)F)cc4Cl)n3)cc2)c1 [F72, 1-(4-((E)-2-(1-(3-chloro-5-(trifluoromethyl)pyridin-2-yl)-1H-1,2,4-triazol-3-yl)vinyl)phenyl)-3-((Z)-3-(2-isopropyl-5-methylphenyl)-4-oxothiazolidin-2-ylidene)urea] | 50 to 100 | 50 to 100 |
| CCC(C)Oc1ccc(C)cc1N1C(=O)CS/C1=N\C(=O)Nc1ccc(/C=C/c2ncn(-c3ccc(OC(F)(F)F)cc3)n2)cc1 (stereo not shown) [F48, 1-((Z)-3-(2-(sec-Butoxy)-5-methylphenyl)-4-oxothiazolidin-2-ylidene)-3-(4-((E)-2-(1-(4-(trifluoromethoxy)phenyl)-1H-1,2,4-triazol-3-yl)vinyl)phenyl)urea] | 50 to 100 | 50 to 100 |
| Cc1ccc(C2CC2(F)F)c(N2C(=O)CS/C2=N\C(=O)Nc2ccc(/C=C/c3ncn(-c4ccc(OC(F)(F)F)cc4)n3)cc2F)c1 (stereo not shown) [F67, 1-((Z)-3-(2-(2,2-difluorocyclopropyl)-5-methylphenyl)-4-oxothiazolidin-2-ylidene)-3-(2-fluoro-4-((E)-2-(1-(4-(trifluoromethoxy)phenyl)-1H-1,2,4-triazol-3-yl)vinyl)phenyl)urea] | 50 to 100 | 50 to 100 |
| Cc1ccc(C(C)C)c(N2C(=O)CS/C2=N\C(=O)Nc2ccc(CCc3ncn(-c4ccc(OC(F)(F)F)cn4)n3)cc2)c1 [F74, (Z)-1-(3-(2-Isopropyl-5-methylphenyl)-4-oxothiazolidin-2-ylidene)-3-(4-(2-(1-(5-(trifluoromethoxy)pyridin-2-yl)-1H-1,2,4-triazol-3-yl)ethyl)phenyl)urea] | 50 to 100 | 50 to 100 |
| CC(C)c1ccc(C(F)(F)F)cc1N1C(=O)CS/C1=N\C(=O)Nc1ccc(/C=C/c2ncn(-c3ccc(OC(F)(F)F)cc3)n2)cc1 [F65, 1-((Z)-3-(2-isopropyl-5-(trifluoromethyl)phenyl)-4-oxothiazolidin-2-ylidene)-3-(4-((E)-2-(1-(4-(trifluoromethoxy)phenyl)-1H-1,2,4-triazol-3-yl)vinyl)phenyl)urea] | 50 to 100 | 50 to 100 |
| CCCc1ccc(C)cc1N1C(=O)CS/C1=N\C(=O)Nc1ccc(/C=C/c2ncn(-c3ccc(OC(F)(F)F)cc3)n2)cc1F [F63, 1-(2-Fluoro-4-((E)-2-(1-(4-(trifluoromethoxy)phenyl)-1H-1,2,4-triazol-3-yl)vinyl)phenyl)-3-((Z)-3-(5-methyl-2-propylphenyl)-4-oxothiazolidin-2-ylidene)urea] | 50 to 100 | 50 to 100 |
| Cc1ccc(Cl)c(N2C(=O)CS/C2=N\C(=O)Nc2ccc(CCc3ncn(-c4ccc(OC(F)(F)F)cc4)n3)cc2)c1 [F6, (Z)-1-(3-(2-Chloro-5-methylphenyl)-4-oxothiazolidin-2-ylidene)-3-(4-(2-(1-(4-(trifluoromethoxy)phenyl)-1H-1,2,4-triazol-3-yl)ethyl)phenyl)urea] | 50 to 100 | 50 to 100 |
| Cc1ccc(C(C)C)c(N2C(=O)CS/C2=N\C(=O)Nc2ccc(/C=C/c3ncn(-c4ccc(OC(F)(F)F)cc4)n3)cc2C(F)(F)F)c1 [F62, 1-((Z)-3-(2-isopropyl-5-methylphenyl)-4-oxothiazolidin-2-ylidene)-3-(4-((E)-2-(1-(4-(trifluoromethoxy)phenyl)-1H-1,2,4-triazol-3-yl)vinyl)-2-(trifluoromethyl)phenyl)urea] | 50 to 100 | 50 to 100 |
| Cc1ccc(C2CC2(F)F)c(N2C(=O)CS/C2=N\C(=O)Nc2ccc(/C=C/c3ncn(-c4ccc(OC(F)(F)F)cc4)n3)cc2)c1 (stereo not shown) [F66, 1-((Z)-3-(2-(2,2-Difluorocyclopropyl)-5-methylphenyl)-4-oxothiazolidin-2-ylidene)-3-(4-((E)-2-(1-(4-(trifluoromethoxy)phenyl)-1H-1,2,4-triazol-3-yl)vinyl)phenyl)urea] | 50 to 100 | 50 to 100 |
| Cc1ccc(C2CC2(F)F)c(N2C(=O)CS/C2=N\C(=O)Nc2ccc(CCc3ncn(-c4ccc(OC(F)(F)F)cc4)n3)cc2F)c1 (stereo not shown) [F30, (Z)-1-(3-(2-(2,2-Difluorocyclopropyl)-5-methylphenyl)-4-oxothiazolidin-2-ylidene)-3-(2-fluoro-4-(2-(1-(4-(trifluoromethoxy)phenyl)-1H-1,2,4-triazol-3-yl)ethyl)phenyl)urea] | 50 to 100 | 50 to 100 |
| COCc1ccc(C)cc1N1C(=O)CS/C1=N\C(=O)Nc1c(F)cc(/C=C/c2ncn(-c3ccc(OC(F)(F)F)cc3)n2)cc1F [F68, 1-(2,6-Difluoro-4-((E)-2-(1-(4-(trifluoromethoxy)phenyl)-1H-1,2,4-triazol-3-yl)vinyl)phenyl)-3-((Z)-3-(2-(methoxymethyl)-5-methylphenyl)-4-oxothiazolidin-2-ylidene)urea] | 50 to 100 | 50 to 100 |
| COc1cc(CCc2ncn(-c3ccc(OC(F)(F)F)cc3)n2)ccc1NC(=O)/N=C1\SCC(=O)N1c1cc(C)ccc1C(C)C [F20, (Z)-1-(3-(2-Isopropyl-5-methylphenyl)-4-oxothiazolidin-2-ylidene)-3-(2-methoxy-4-(2-(1-(4-(trifluoromethoxy)phenyl)-1H-1,2,4-triazol-3-yl)ethyl)phenyl)urea] | 50 to 100 | 50 to 100 |
| Cc1ccc(C(C)C)c(N2C(=O)CS/C2=N\C(=O)Nc2ccc(/C=C/c3ncn(-c4ccc(OC(F)(F)F)cc4)n3)c(F)c2)c1 [F61, 1-(3-fluoro-4-((E)-2-(1-(4-(trifluoromethoxy)phenyl)-1H-1,2,4-triazol-3-yl)vinyl)phenyl)-3-((Z)-3-(2-isopropyl-5-methylphenyl)-4-oxothiazolidin-2-ylidene)urea] | 50 to 100 | 50 to 100 |
